Ends that are not written are not given here.
What was measured:
[1] = test system: A2780 ovarian tumor cells; assay: Uptake of doxorubicin by ovarian tumor cells in vitro (fluorometric); format: cell-based; conditions: 5 nM DOX
Method: To determine the uptake of doxorubicin by ovarian tumor cells in vitro, ovarian tumor cells (A2780) were plated in 6-well plates. After 24 hrs of incubation, the medium was replaced with fresh medium and cells were then treated with PBS, free DOX (DOX concentration=5 nM), DOX-NPs (5 nM DOX), or LHRH-NP-DOXs (5 nM DOX). After 2, 4, and 24 hrs of incubation, cells were rinsed with PBS and scrapped off the plates and centrifuged. The pellets were resuspended in lysis buffer [[…] sucrose, 5 mM TrisHCl, 1 mM MgSO4, 1 mM CaCl2 (pH 7.6)] and homogenized using a polytron homogenizer. A 200:1 dilution of the homogenate from each sample was then transferred in triplicate to 2 ml centrifuge tubes and 100:1 of 10% (v/v) Triton X-100, 200:1 of water, and 1,500:1 of acidified isopropanol (0.75 N HCl) was added. The tubes were vortexed to ensure complete mixing and doxorubicin was extracted overnight at −20° C. The next day, the samples were thawed to room temperature, and then centrifuged at 15,000×g for 20 min. The supernatant was collected. Doxorubicin was measured fluorometrically (EX485 nm/EM590 nm) as described previously (3).

[2] = test system: ovarian epithelial tumor cells lines (A2780, CAOV3, and UCI), and a cisplatin-resistant cell line (A2780/CP70); assay: Cell viability (MTT, 96-titer kit) in ovarian tumor cell lines; conditions: concentrations from 1 to 5 nM; cisplatin-sensitive and cisplatin-resistant cell lines
LHRH receptor = molecular target: T1, LHRH receptor (Mus musculus, UniProt Q01776); assay: pCRE-luciferase reporter assay in LβT2 cells for binding to cell surface LHRH receptors; format: cell-based; conditions: 6 hrs treatment, read-out: binding affinities (IC50 values)
T1 construct: endogenous in cells; host or cells: LβT2 mouse gonadotrope tumor cell line
T1 sequence (Q01776 1-327): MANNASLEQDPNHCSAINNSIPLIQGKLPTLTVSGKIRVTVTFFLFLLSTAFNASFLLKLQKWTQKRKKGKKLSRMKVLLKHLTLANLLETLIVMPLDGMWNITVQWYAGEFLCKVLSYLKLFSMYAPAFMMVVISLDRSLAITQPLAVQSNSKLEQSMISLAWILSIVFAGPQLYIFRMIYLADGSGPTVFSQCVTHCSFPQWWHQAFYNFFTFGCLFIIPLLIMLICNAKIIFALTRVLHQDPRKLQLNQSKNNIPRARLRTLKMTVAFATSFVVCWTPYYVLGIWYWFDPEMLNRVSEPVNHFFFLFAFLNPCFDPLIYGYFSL
Method: To determine if LHRH, when conjugated to gold particles or FNPs, retained its binding affinity to the luteinizing hormone-releasing hormone receptor and its biological activity, the binding of LHRH, LHRH-NP-DOXs, and LHRH-FNP-DOXs to cell surface LHRH receptors was first examined For this purpose, a mouse gonadotrope tumor cell line (LβT2) was used that expresses high levels of high affinity LHRH receptors (82). The LβT2 cells were plated on 6-well plates. After 24 hrs, the cells were transfected with a reporter gene construct, pCRE-luciferase plasmid, as described previously (82). After 24 hrs of transfection, the medium was replaced with serum free medium, followed by incubation for 4 hrs, and then treatment of the cells with various concentrations of LHRH or LHRH-NP-DOXs for 6 hrs. Cells were then lysed and assayed for luciferase activity using a luciferase assay kit (Promega, Madison, Wis.). Binding of LHRH or LHRH-NP-DOX particles was calculated and compared as described previously (82). Experiments were repeated three times for every new preparation.

Compound	doxorubicin found in cells compared to LHRH-NP-DOXs ([1]; after 24 hrs)	doxorubicin found in cells ([1]; within 4 hrs)	efficacy on cell death [2]	IC50 (LHRH receptor) [pM]
COc1cccc2c1C(=O)c1c(O)c3c(c(O)c1C2=O)C[C@@](O)(C(=O)CO)C[C@@H]3O[C@H]1C[C@H](N)[C@H](O)[C@H](C)O1 [DOX, doxorubicin, reference compound]	significantly lower	no detectable amount	ineffective	
CC(C)C[C@H](NC(=O)[C@@H](Cc1c[nH]c2ccccc12)NC(=O)[C@H](Cc1ccc(O)cc1)NC(=O)[C@H](CO)NC(=O)[C@H](Cc1c[nH]c2ccccc12)NC(=O)[C@H](Cc1c[nH]cn1)NC(=O)[C@@H]1CCC(=O)N1)C(=O)N[C@@H](CCCNC(=N)N)C(=O)N1CCC[C@H]1C(=O)NCC(N)=O [LHRH, p-Glu-His-Trp-Ser-Tyr-D-Trp-Leu-Arg-Gly-NH2, reference compound]			ineffective	100
LHRH-DOX (QHWSYGLRPG; also: doxorubicin conjugate; UniProt P01148 24-33, looked up)			ineffective	

Source: patent US20110104074A1, “METHODS FOR TARGETED CANCER TREATMENT AND DETECTION” (UNIVERSITY OF LOUISVILLE RESEARCH FOUNDATION, INC., priority 2008, published 2011)
